Experimental data as given in patent publication US11191850B2, “Molecular probes for detection and imaging of pancreatic cancer” (Portland State University, priority 2016, dated 2021).
“And” between values parts separate entries of the source, which are not always exact repeats. Equal entries are not always repeated.

Columns and labels:
[1] = UV-Vis absorption and fluorescence spectroscopy; assay type: physicochemical; set-up: Brightness: unit not given here; details: for pH and solvent sensitivity of UV and fluorescence spectra: 10-15 μM, aqueous 10% DMSO with HCl, NaOH or pH 7.4 buffer, various solvents; for Extinction coefficient / λmax abs: 10% DMSO
Source text: UV-Vis absorption and fluorescence spectroscopy. UV-Vis spectra were collected with a Cary 50 UV-Vis spectrophotometer at room temperature, using a 1-cm quartz cuvette. Fluorescence spectra were collected on a Cary Eclipse fluorescence spectrophotometer (Agilent Technologies). All absorbance spectra were reference corrected. Fluorescence spectra were corrected for the wavelength dependent response of the R928 photomultiplier tube using a manufacturer generated correction file. Quantum yields are reported as the average of multiple measurements using multiple references. Excitation emission matrices (EEMs) were collected over various spectral regions, using 5-nm step sizes for emission and 10-nm step sizes for excitation. The band pass for excitation and emission was 5 to 10 nm.
(§1) Probes 1-13 were screened for pH and solvent sensitivity. Solvent sensitivity or dependence is at least partially attributable to differences in the equilibria between tautomeric forms of the compounds in the various solvents evaluated. The fluorophore concentrations ranged from 10-15 μM. Aqueous solutions contained 10% DMSO and 12.5 mM HCl, 12.5 mM NaOH, or pH 7.4 phosphate buffer.

[2] = pKa of ionizable fluorophores (pH sensitivity screening); assay type: physicochemical; details: aqueous solutions with 10% DMSO
Method: as §1

[3] = basic solution pH 12.1, NaOH, 15 μM
[4] = conjugate acid, acidic solution pH 1.9, HCl, 15 μM
[5] = conjugate base, basic solution pH 12.1, NaOH
[6] = conjugate base, pH 12.1, NaOH, excited at 630 nm
[7] = acidic solution pH 1.9, HCl, excited at 480 nm or 510 nm
[8] = pH 7.4 buffer, excited at 480 nm
[9] = pH 7.4 buffer, methyl ether derivatives
[10] = pH 7.4 phosphate buffer, methyl ether derivatives
[11] = pH 7.4 buffer, excited at 630 nm
[12] = pH 7.4 buffer, seminaphthorhodamines
[13] = pH 7.4 phosphate buffer, seminaphthorhodamines

SMILES: COC(=O)c1ccccc1-c1c2ccc(=O)cc-2oc2c1ccc1cccc(N(C)C)c12 [Compound 8, methyl 2-(1-(dimethylamino)-10-oxo-10H-benzo[c]xanthen-7-yl)benzoate]
- pH and solvent sensitivity of UV and fluorescence spectra [1]: not affected by either solvent changes or by solution pH values above 2
- Stokes shift ([1]; basic solution pH 12.1, NaOH): 21 nm
- λmax em ([1]; basic solution pH 12.1, NaOH): 530 nm
- Extinction coefficient [1, 3]: 8834 M⁻¹ cm⁻¹
- λmax abs [1, 3]: 530 nm
- Extinction coefficient [1, 4]: 10132 M⁻¹ cm⁻¹
- λmax abs [1, 4]: 480 nm
- Stokes shift ([1]; conjugate acid, pH 1.9, HCl): 100 nm
- λmax em ([1]; conjugate acid, pH 1.9, HCl): 580 nm
- pKa ([2]; Table 5): 4.36 +/− 0.04

SMILES: COC(=O)c1ccccc1-c1c2ccc(=[N+](C)C)cc-2oc2c1ccc1cccc(O)c12 [Compound 5, N-(1-hydroxy-7-(2-(methoxycarbonyl)phenyl)-10H-benzo[c]xanthen-10-ylidene)-N-N-dimethyl iminium bicarbonate]
- pH and solvent sensitivity of UV and fluorescence spectra [1]: exhibit pH as well as solvent sensitivity
- Extinction coefficient ([1]; acidic solution pH 1.9, HCl): 20399 M⁻¹ cm⁻¹
- Extinction coefficient [1, 5]: 17252 M⁻¹ cm⁻¹
- λmax abs [1, 5]: 632 nm
- Brightness ([1]; conjugate base, pH 12.1, NaOH): 29
- Stokes shift ([1]; conjugate base, pH 12.1, NaOH): 148 nm
- Quantum yield [1, 6]: 0.17%
- λmax em [1, 6]: 780 nm

SMILES: COC(=O)c1ccccc1-c1c2ccc(=N)cc-2oc2c1ccc1cccc(O)c12.Cl [Compound 3, 1-hydroxy-7-(2-(methoxycarbonyl)phenyl)-10H-benzo[c]xanthen-10-iminium chloride]
- pH and solvent sensitivity of UV and fluorescence spectra [1]: exhibit pH as well as solvent sensitivity
- Brightness ([1]; acidic solution pH 1.9, HCl): 226
- Stokes shift ([1]; acidic solution pH 1.9, HCl): 62 nm
- Extinction coefficient ([1]; acidic solution pH 1.9, HCl): 19787 M⁻¹ cm⁻¹
- λmax abs ([1]; acidic solution pH 1.9, HCl): 542 nm
- Quantum yield [1, 7]: 1.14%
- λmax em [1, 7]: 604 nm
- Extinction coefficient [1, 5]: 15589 M⁻¹ cm⁻¹
- λmax abs [1, 5]: 621 nm
- Brightness ([1]; conjugate base, pH 12.1, NaOH): 17
- Stokes shift ([1]; conjugate base, pH 12.1, NaOH): 149 nm
- Quantum yield [1, 6]: 0.11%
- λmax em [1, 6]: 770 nm
- pKa ([2]; Table 1): 6.67 +/− 0.11

SMILES: COC(=O)c1ccccc1-c1c2ccc(=[N+](C)C)cc-2oc2c1ccc1cccc(OC)c12.[Cl-] [Compound 6, N-(1-methoxy-7-(2-(methoxycarbonyl)phenyl)-10H-benzo[c]xanthen-10-ylidene)-N-methylmethanaminium chloride]
- pH and solvent sensitivity of UV and fluorescence spectra [1]: insensitive to variations in pH or solvent
- Quantum yield [1, 8]: 9.32%
- λmax em [1, 8]: 606 nm
- Brightness [1, 9]: 2094
- Stokes shift [1, 9]: 38 nm
- Extinction coefficient [1, 10]: 22470 M⁻¹ cm⁻¹
- λmax abs [1, 10]: 568 nm

SMILES: COC(=O)c1ccccc1-c1c2ccc(=N)cc-2oc2c1ccc1cccc(N)c12.Cl [Compound 9, 1-amino-7-(2-(methoxycarbonyl)phenyl)-10H-benzo[c]xanthen-10-iminium chloride]
- pH and solvent sensitivity of UV and fluorescence spectra [1]: not pH dependent, but were modestly solvent sensitive
- Quantum yield [1, 11]: 0.18%
- λmax em [1, 11]: 760 nm
- Brightness [1, 12]: 25
- Stokes shift [1, 12]: 184 nm
- Extinction coefficient [1, 13]: 13872 M⁻¹ cm⁻¹
- λmax abs [1, 13]: 576 nm

SMILES: COC(=O)c1ccccc1-c1c2ccc(=N)cc-2oc2c1ccc1cccc(OC)c12.O=C(O)O [Compound 4, 1-methoxy-7-(2-(methoxycarbonyl)phenyl)-10H-benzo[c]xanthen-10-iminium bicarbonate]
- pH and solvent sensitivity of UV and fluorescence spectra [1]: insensitive to variations in pH or solvent
- Extinction coefficient [1, 10]: 21742 M⁻¹ cm⁻¹

SMILES: COC(=O)c1ccccc1-c1c2ccc(=O)cc-2oc2c1ccc1cccc(N)c12 [Compound 7, methyl 2-(1-amino-10-oxo-10H-benzo[c]xanthen-7-yl)benzoate]
- pH and solvent sensitivity of UV and fluorescence spectra [1]: not affected by either solvent changes or by solution pH values above 2
- Extinction coefficient [1, 3]: 5664 M⁻¹ cm⁻¹ and 8300 M⁻¹ cm⁻¹
- Extinction coefficient [1, 4]: 3996 M⁻¹ cm⁻¹
- λmax abs [1, 4]: 598 nm
- Stokes shift ([1]; conjugate acid, pH 1.9, HCl): 172 nm
- λmax em ([1]; conjugate acid, pH 1.9, HCl): 770 nm

SMILES: COC(=O)c1ccccc1C1=c2cc3c4c(c2Oc2c1ccc1cccc(O)c21)CCC[N+]=4CCC3 [Compound 11, 15-hydroxy-9-(2-(methoxycarbonyl)phenyl)-1,2,3,5,6,7-hexahydrobenzo[7,8]chromeno[2,3-f]pyrido[3,2,1-ij]quinolin-4-ium chloride]
- pH and solvent sensitivity of UV and fluorescence spectra [1]: exhibit pH as well as solvent sensitivity
- Brightness ([1]; acidic solution pH 1.9, HCl): 2314
- Stokes shift ([1]; acidic solution pH 1.9, HCl): 39 nm
- Extinction coefficient ([1]; acidic solution pH 1.9, HCl): 15134 M⁻¹ cm⁻¹
- λmax abs ([1]; acidic solution pH 1.9, HCl): 585 nm
- Quantum yield [1, 7]: 15.29%
- λmax em [1, 7]: 624 nm
- Extinction coefficient [1, 5]: 14454 M⁻¹ cm⁻¹
- λmax abs [1, 5]: 643 nm
- Brightness ([1]; conjugate base, pH 12.1, NaOH): 43
- Stokes shift ([1]; conjugate base, pH 12.1, NaOH): 127 nm
- Quantum yield [1, 6]: 0.30%
- λmax em [1, 6]: 770 nm
- pKa ([2]; Table 1): 7.84 +/− 0.11
